# pKi: −log10 of the molar value. Where no end group is shown, it is not given here. [ ]: non-standard residue; d: D form. 1Nal = N[C@@H](Cc1cccc2ccccc12)C(=O)O; Aib = CC(C)(N)C(=O)O
# What was measured:
# [1] = system: diet-induced obese (DIO) mice; test: Effects on food intake, body weight and body composition in DIO mice; type: in vivo; details: for Fat mass loss (g fat weight change for 14 days) / Overall weight loss (g weight change for 14 days) / Total food intake (g total for 14 days): DIO mice
# Protocol: Effects on Food Intake, Body Weight and Body Composition in Diet-Induced Obese (DIO) Mice
# Three to four months old male diet-induced obese (DIO) mice are used. Animals are individually housed in a temperature-controlled (24° C.) facility with a 12 hour light/dark cycle (lights on 22:00), and have free access to food and water. After 2 weeks acclimation to the facility, mice are randomized to treatment groups (n=8-10/group) so that each group has similar mean body weight and fat mass. Before the experiment, mice are subcutaneously (sc) injected with vehicle solution and weighed for 7 days to acclimate them to the procedures.
# Vehicle or peptide analog (dose range 10-100 nmol/Kg) dissolved in vehicle is administered by sc injection to ad libitum fed DIO mice 30-90 minutes prior to the onset of the dark cycle […] for 2 to 4 weeks. Body weight and the weight of food plus the hopper are measured at the same time. Food consumed in the last 24 hours is calculated by subtracting current weight of food plus the hopper from that of the previous day. Absolute changes in body weight are calculated by subtracting the body weight of the animal prior to the first injection. On days −1 and 14, total fat mass is measured by nuclear magnetic resonance (NMR) using an Echo Medical System (Houston, Tex.) instrument. Fat free mass is calculated by subtracting fat mass from total body weight.
# DIO mice = test: Oral glucose tolerance test after 2-week treatment in DIO mice; type: in vivo; details: for Glucose AUC, MEAN: OGTT
# Protocol: Fifty-six hours after the last injection of compound in the DIO study above the animals were subjected to an oral glucose tolerance test. In short, mice were fasted for 16 hours prior to the start of the glucose tolerance test. At time 0, animals are given 2 g/kg dextrose by oral gavage. Blood is collected by tail bleeding taken 0, 15, 30, 60 and 120 minutes after glucose challenge. Glucose concentration is measured by glucometer.
# Normal male Wistar rats = test: Intravenous glucose tolerance test in normal rats; type: in vivo; details: IVGTT; for insulin AUC: 0 to 30 min
# Protocol: Effects on Blood Glucose Excursion During an Intravenous Glucose Tolerance Test in Normal Rats
# Normal male Wistar rats (225-250 g) are used in the study. Animals are randomized into groups based on fed body weight and blood glucose. Animals are injected with vehicle or peptide analog (dose 3-400 μg peptide content/kg) 16 hours prior to the start of the test. Food is removed at the time of injection. Prior to the assay the animals are put under anesthesia, Phenobarbital 65 mg/kg i.p., and two catheters are inserted, one in the jugular vein and the other in the carotid artery. At time 0, animals are given 0.5 g glucose/kg through the venous catheter. Blood is collected from the carotid artery at time 0 (pre glucose), 2, 4, 6, 10, 20 and 30 minutes after glucose challenge. Glucose concentration is measured by glucometer. Insulin is measured by Mesoscale®. Efficacy is measured as the increase in total area under the insulin curve (=integrated plasma insulin values from t+0 to 30 min) as well as the area under the glucose curve which is a measure of the glucose excursion following the intravenous glucose challenge.
# hGlucR = molecular target: T1, hGlucR (Homo sapiens, UniProt P47871); test: Glucagon receptor (hGlucR) binding assay (SPA, I-125 glucagon); details: hGlucR 293HEK membranes
# T1 construct: expressed in transfected cells; host or cells: 293HEK, Hygromycin-selected, phD expression plasmid
# T1 sequence (P47871 26-477): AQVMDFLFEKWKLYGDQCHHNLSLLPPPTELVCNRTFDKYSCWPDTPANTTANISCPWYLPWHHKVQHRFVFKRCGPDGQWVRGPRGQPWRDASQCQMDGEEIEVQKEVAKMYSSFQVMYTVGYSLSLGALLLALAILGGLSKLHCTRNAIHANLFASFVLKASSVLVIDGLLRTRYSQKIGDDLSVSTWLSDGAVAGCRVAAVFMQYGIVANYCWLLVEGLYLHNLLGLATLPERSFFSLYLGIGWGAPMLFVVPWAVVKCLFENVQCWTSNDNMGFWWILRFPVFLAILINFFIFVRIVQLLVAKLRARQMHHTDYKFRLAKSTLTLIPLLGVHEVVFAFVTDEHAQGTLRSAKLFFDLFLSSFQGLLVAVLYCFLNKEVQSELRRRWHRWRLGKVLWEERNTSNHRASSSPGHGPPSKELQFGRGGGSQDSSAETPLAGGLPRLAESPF
# Protocol: The hGlucR cDNA is subcloned into the expression plasmid phD (Trans-activated expression of fully gamma-carboxylated recombinant human protein C, an antithrombotic factor. Grinnell, B. W., et. al., Bio/Technology 5: 1189-1192 (1987)). This plasmid DNA is transfected into 293HEK cells and selected with 200 μg/mL Hygromycin.
# Crude plasma membranes are prepared using cells from suspension culture. The cells are lysed on ice in hypotonic buffer containing 25 mM Tris HCl, pH 7.5, 1 mM MgCl2, DNAse1, 20 μ/mL, and Roche Complete™ Inhibitors without EDTA. The cell suspension is homogenized with a glass dounce homogenizer using a Teflon® pestle for 25 strokes. The homogenate is centrifuged at 4° C. at 1800×g for 15 minutes. The supernatant is collected and the pellet is resuspended in hypotonic buffer and rehomogenized. The mixture is centrifuged at 1800×g for 15 minutes. The second supernatant is combined with the first supernatant. […]
# The binding buffer contains 25 mM 4-(2-hydroxyethyl)-1-piperazineethanesulfonic acid (HEPES), pH 7.4, 2.5 mM CaCl2, 1 mM MgCl2, 0.1% fatty acid free BSA, 0.003% Tween20, and Roche Complete™ Inhibitors without EDTA. […] Plates are read with a PerkinElmer Life and Analytical Sciences Trilux MicroBeta® scintillation counter after 12 hours of settling time at room temperature.
# Results are calculated as a percent of specific I-125-glucagon binding in the presence of compound. […]
# [2] = system: diet-induced obese Long Evans rats; test: Effects on food intake, body weight, body composition and plasma lipids in DIO Long Evans rats; type: in vivo
# Protocol: Four to five months old male diet-induced obese Long Evans rats are used. Animals are individually housed in a temperature-controlled (24° C.) facility with a 12 hour light/dark cycle (lights on 22:00), and have free access to food (diet TD95217) and water. Animals are acclimated to the facility for at least 2 weeks. On day 0, body composition is determined by QNMR and rats are randomized to respective groups (n=6/group) based on body weight, % fat, and % lean mass. Compound is administered by subcutaneous injection on days 1, 4, 8, 11, and 15. […] After CO2 euthanasia, blood samples are taken by cardiac stick for analysis of exposure determination.
substance,measurement,setting,value
"Aib^2, Aib^13, Nal^22, Aib^29, Cys^43(PEG20K), Cys^44 (PEG20K)-GIP [Example 5] (Y[Aib]EGTFTSDYSI[Aib]LDKIAQRA[1Nal]VQWLIA[Aib]KGKKQEWKHQITQCC-NH2; not fully specified (residues 43, 44); cysteine pairing not given here) [Nal22 GIP analog PEGylated at Cys 43 and 44 with 20 kDa mPEG iodoacetamide]",Fat mass loss (g fat weight change for 14 days),"[1]; Table 6b, 10 nmol/Kg",-2.4 ± 0.3 g
same,Overall weight loss (g weight change for 14 days),"[1]; Table 6b, 10 nmol/Kg",-3.2 ± 0.3 g
same,Total food intake (g total for 14 days),"[1]; Table 6b, 10 nmol/Kg",31.0 ± 1.0 g
same,Fat mass loss (g fat weight change for 14 days),"[1]; Table 6b, 30 nmol/Kg",-3.6 ± 0.4 g
same,Overall weight loss (g weight change for 14 days),"[1]; Table 6b, 30 nmol/Kg",-5.0 ± 0.4 g
same,Total food intake (g total for 14 days),"[1]; Table 6b, 30 nmol/Kg",26.7 ± 0.7 g
same,"Glucose AUC, MEAN","DIO mice; Table 7b, 10 nmol/Kg",14332 mg·min/dL
same,"Glucose AUC, MEAN","DIO mice; Table 7b, 30 nmol/Kg",12474 mg·min/dL
same,glucose AUC,Normal male Wistar rats; 50 μg/Kg,7202 mg·min/dL
same,insulin AUC,Normal male Wistar rats; 50 μg/Kg 16 hours before test,133 ng·min/mL
same,glucose AUC,Normal male Wistar rats; 200 μg/Kg,7351 mg·min/dL
same,insulin AUC,Normal male Wistar rats; 200 μg/Kg 16 hours before test,124 ng·min/mL
"Aib^2, Aib^13, Aib^29, Cys^43(PEG20K), Cys^44 (PEG20K)-GIP (Y[Aib]EGTFTSDYSI[Aib]LDKIAQRAFVQWLIA[Aib]KGKKQEWKHQITQC(PEG 20 kDa)C(PEG 20 kDa)-NH2) [Example 3, GIP analog PEGylated at Cys 43 and 44 with 20 kDa mPEG maleimide]",pKi,hGlucR,< 5.10
same,cumulative food intake and body weight compared to vehicle-treated mice,"[1]; 14-day DIO mouse studies, summary of Tables 6a and 6b",decreased
same,Fat mass loss (g fat weight change for 14 days),"[1]; Table 6a, 30 nmol/Kg",-4.3 ± 0.3 g
same,Total food intake (g total for 14 days),"[1]; Table 6a, 30 nmol/Kg",26.5 ± 1.5 g
same,Overall weight loss (g weight change for 14 days),"[1]; Table 6a, 30 nmol/Kg sc every 3 days",-5.5 ± 0.4 g
same,Fat mass loss (g fat weight change for 14 days),"[1]; Table 6a, 100 nmol/Kg",-5.6 ± 0.2 g
same,Total food intake (g total for 14 days),"[1]; Table 6a, 100 nmol/Kg",23.4 ± 0.7 g
same,Overall weight loss (g weight change for 14 days),"[1]; Table 6a, 100 nmol/Kg sc every 3 days",-7.0 ± 0.3 g
same,glucose excursion following an oral glucose load,"DIO mice; DIO mice, summary of Tables 7a and 7b",significantly reduced
same,"Glucose AUC, MEAN","DIO mice; Table 7a, 30 nmol/Kg",10293 mg·min/dL
same,"Glucose AUC, MEAN","DIO mice; Table 7a, 100 nmol/Kg",10892 mg·min/dL
same,free fatty acids (plasma),[2]; 10 nmol/Kg,0.94 mEq/L
same,total cholesterol (plasma),[2]; 10 nmol/Kg,91 mg/dL
same,triglycerides (plasma),[2]; 10 nmol/Kg,262.1 mg/dL
same,fat mass reduced,[2]; 10 nmol/Kg over 16 days,1.3%
same,lean mass increased,[2]; 10 nmol/Kg over 16 days,0.6%
same,free fatty acids (plasma),[2]; 30 nmol/Kg,1.01 mEq/L
same,total cholesterol (plasma),[2]; 30 nmol/Kg,94 mg/dL
same,triglycerides (plasma),[2]; 30 nmol/Kg,233.5 mg/dL
same,fat mass reduced,[2]; 30 nmol/Kg over 16 days,2.3%
same,lean mass increased,[2]; 30 nmol/Kg over 16 days,1.3%
same,changes in body weight and body composition compared to vehicle-treated DIO rats,[2]; over 16 days,increasing the percentage of lean mass and decreasing the percentage of fat mass
same,amount of free fatty acids,[2]; versus vehicle,increased
same,"amounts of plasma lipids, including triglycerides and total cholesterol",[2]; versus vehicle,lowered
same,insulin AUC and glucose AUC compared to vehicle-treated rats,Normal male Wistar rats,increased insulin AUC and decreased glucose AUC
same,glucose AUC,Normal male Wistar rats; 50 μg/Kg,6780 mg·min/dL
same,insulin AUC,Normal male Wistar rats; 50 μg/Kg 16 hours before test,137 ng·min/mL
same,glucose AUC,Normal male Wistar rats; 200 μg/Kg,7020 mg·min/dL
same,insulin AUC,Normal male Wistar rats; 200 μg/Kg 16 hours before test,183 ng·min/mL

# — US8815811B2, “Peptides and methods for their preparation and use” (Eli Lilly and Company, priority 2010, dated 2014)
